According to ChEMBL document CHEMBL3585340, “Potent Apoptotic Response Induced by Chloroacetamidine Anthrathiophenediones in Bladder Cancer Cells” (J Med Chem, 2015):
Active and inactive are the calls of the source. The calls are words filed in the database; no cut-off is given here.

Key:
[1] = Cytotoxicity against human T24 cells harboring HRAS mutant assessed as reduction of metabolic activity after 72 hrs by resazurin assay; format: functional, cell-based; settings: T-24, 72 h
[2] = tested on: HEK293; assay: Cytotoxicity against HEK293 cells harboring wild type HRAS assessed as reduction of metabolic activity after 72 hrs by resazurin assay; format: cell-based; settings: Homo sapiens, HEK293, 72 h
[3] = Cellular uptake in human T24 cells at 1 to 5 uM after 4 hrs by FACS analysis; format: ADME, cell-based; settings: t-24, 4 h
[4] = Cellular uptake in human T24 cells at 5 uM after 4 hrs by FACS analysis relative to HEK293 cells; format: ADME, cell-based; settings: hek293, 4 h
[5] = Cellular uptake in cytoplasm of human T24 cells at 5 uM after 4 hrs by confocal microscopic analysis; format: ADME, cell-based; settings: t-24, 4 h
[6] = Cellular uptake in nucleus of human T24 cells at 5 uM after 4 hrs by confocal microscopic analysis; format: ADME, cell-based; settings: t-24, 4 h
[7] = Binding affinity to 5' FAM/3' TAMRA labeled HRAS1 G-quadruplex DNA (unknown origin) by FRET analysis
[8] = Binding affinity to 5' FAM/3' TAMRA labeled HRAS2 G-quadruplex DNA (unknown origin) by FRET analysis
[9] = Binding affinity to 5' FAM/3' TAMRA labeled HRAS1 G-quadruplex DNA (unknown origin) assessed as change in melting temperature by FRET analysis
[10] = Binding affinity to 5' FAM/3' TAMRA labeled HRAS2 G-quadruplex DNA (unknown origin) assessed as change in melting temperature by FRET analysis
[11] = Cellular uptake in human T24 cells at 5 uM at 4 degC after 4 hrs by FACS analysis; format: ADME, cell-based; settings: t-24, 4 h
[12] = Cellular uptake in human T24 cells at 5 uM at 37 degC after 4 hrs by FACS analysis; format: ADME, cell-based; settings: t-24, 4 h
[13] = Downregulation of p21RAS protein level in human T24 cells at 5 uM after 48 hrs by Western blot analysis; format: functional, cell-based; settings: T-24
[14] = tested on: T-24; assay: Inhibition of HRAS mRNA expression in human T24 cells at 5 uM after 6 to 24 hrs by RT-qPCR analysis; format: functional, cell-based
[15] = tested on: T-24; assay: Cytotoxicity against human T24 cells assessed as reduction of colony formation at 1 uM after 7 days by methylene blue staining-based assay; format: functional, cell-based
[16] = tested on: T-24; assay: Induction of apoptosis in human T24 cells assessed as PARP-1 cleavage at 2.5 uM measured at 48 hrs by Western blot analysis relative to control; format: functional
[17] = tested on: T-24; assay: Induction of apoptosis in human T24 cells assessed as activation of caspase 3/7 at 2.5 to 5 uM measured after 18 to 24 hrs by Apo-ONE assay relative to control; format: functional
[18] = tested on: T-24; assay: Induction of apoptosis in human T24 cells at 2.5 uM after 24 hrs by annexin V-FITC/propidium iodide staining-based FACS analysis (13 +/- 5%); format: functional
[19] = Cell cycle arrest in human T24 cells assessed as accumulation at G2 phase at 5 uM after 48 to 72 hrs by propidium iodide staining-based FACS analysis; format: functional; settings: T-24
[20] = Cellular uptake in human T24 cells at 5 uM after 4 hrs by FACS analysis in presence of dynasore; format: ADME, cell-based; settings: t-24, 4 h
[21] = Binding affinity to 5' FAM/3' TAMRA labeled HRAS2 G-quadruplex DNA (unknown origin) assessed as change in melting temperature at 5 equiv of compound by FRET analysis in presence of 10 fold excess duplex DNA (reference value: 68.1 degreeC)
[22] = tested on: T-24; assay: Inhibition of HRAS mRNA expression in human T24 cells assessed as remaining mRNA level at 5 uM after 6 hrs by RT-qPCR analysis relative to beta2-microglobulin mRNA expression; format: functional
[23] = tested on: T-24; assay: Inhibition of HRAS mRNA expression in human T24 cells assessed as remaining mRNA level at 5 uM after 24 hrs by RT-qPCR analysis relative to beta2-microglobulin mRNA expression; format: functional
[24] = Downregulation of p21RAS protein level in human T24 cells assessed as remaining protein level at 5 uM after 48 hrs by Western blot analysis relative to beta-actin protein expression; format: functional, cell-based; settings: T-24
[25] = tested on: T-24; assay: Induction of reactive oxygen species generation in human T24 cells at 1 to 5 uM after 24 hrs relative to control; format: functional, cell-based
[26] = Cell cycle arrest in human T24 cells assessed as accumulation at G2 phase at 5 uM after 48 hrs by propidium iodide staining-based FACS analysis (reference value: 18.5%); format: functional; settings: T-24
[27] = Cell cycle arrest in human T24 cells assessed as accumulation at G1 phase at 5 uM after 48 hrs by propidium iodide staining-based FACS analysis (reference value: 52.4%); format: functional; settings: T-24
[28] = Cell cycle arrest in human T24 cells assessed as accumulation at G2 phase at 5 uM measured at 72 hrs by propidium iodide staining-based FACS analysis (reference value: 17.7%); format: functional; settings: T-24
[29] = Downregulation of cyclin D1 level in human T24 cells assessed as remaining protein level at 2.5 uM after 48 hrs by Western blot analysis; format: functional, cell-based; settings: T-24
[30] = Binding affinity to 5' FAM/3' TAMRA labeled HRAS2 G-quadruplex DNA (unknown origin) assessed as change in melting temperature at 5 equiv of compound (r = 5) by FRET analysis (reference value: 68.1 degreeC)
[31] = Downregulation of p21RAS protein level in human T24 cells assessed as remaining protein level at 2.5 to 5 uM after 48 hrs by Western blot analysis relative to beta-actin protein expression; format: functional, cell-based; settings: T-24
[32] = tested on: T-24; assay: Binding affinity to wild type HRAS G-quadruplex DNA (unknown origin) transfected in human T24 cells assessed as remaining expression ratio of firefly luciferase to renila luciferase reporter gene at 100 to 200 nM pretreated with cells followed by transfection measured after 48 hrs; format: cell-based
[33] = tested on: T-24; assay: Binding affinity to mutant HRAS Mut-A plasmid (unknown origin) transfected in human T24 cells at 100 to 200 nM pretreated with cells followed by transfection measured after 48 hrs by dual luciferase reporter gene assay; format: cell-based
[34] = tested on: T-24; assay: Binding affinity to mutant HRAS Mut-B plasmid (unknown origin) transfected in human T24 cells at 100 to 200 nM pretreated with cells followed by transfection measured after 48 hrs by dual luciferase reporter gene assay; format: cell-based
[35] = tested on: T-24; assay: Antitumor activity against human T24 cells xenografted in nude mouse assessed as tumor growth inhibition at 1.7 mg/kg administered intratumorally on day 1, 8, 15, 22 measured every 2 to 3 days up to 44 days; format: functional, organism-based
[36] = Antitumor activity against human T24 cells xenografted in nude mouse assessed as mouse median survival day at 1.7 mg/kg administered intratumorally on day 1, 8, 15, 22 (reference value: 32 days); format: functional, T-24
[37] = Antitumor activity against human T24 cells xenografted in nude mouse assessed as increase in mouse median survival day at 1.7 mg/kg administered intratumorally on day 1, 8, 15, 22 relative to control; format: functional, T-24
[38] = Binding affinity to 5' FAM/3' TAMRA labeled HRAS2 G-quadruplex DNA (unknown origin) assessed as change in melting temperature at 10 equiv of compound by FRET analysis (reference value: 67.2 degreeC)

N=C(CCl)NCCCNc1c2c(c(NCCCNC(=N)CCl)c3sccc13)C(=O)c1ccccc1C2=O
IC50 [1]: 6.8 µM | IC50 [2]: 19.4 µM | Drug uptake [3]: Active | fold change (FC) [4]: 2 | Drug uptake [5]: Active | Drug uptake [6]: Active | Kd [7]: 0.26 µM | Kd [8]: 0.276 µM | ΔTm [9]: 9 °C | ΔTm [10]: 7 °C

N=C(CCl)NCCCNc1c2c(c(NCCNC(=N)CCl)c3ccsc13)C(=O)c1ccccc1C2=O
IC50 [1]: 2.9 µM | IC50 [2]: 10.1 µM | Drug uptake [3]: Active | Drug uptake [11]: Not Active | Drug uptake [12]: Active | fold change (FC) [4]: 2 | Drug uptake [5]: Active | Drug uptake [6]: Active | Kd [7]: 0.179 µM | Kd [8]: 0.221 µM | ΔTm [9]: 9 °C | ΔTm [10]: 7 °C

N=C(N)NCCNc1c2c(c(NCCNC(=N)N)c3sccc13)C(=O)c1ccccc1C2=O
IC50 [1]: 4.4 µM | IC50 [2]: > 30 µM | Drug uptake [3]: Active | Activity [13]: Active | inhibition [14]: inactive | Activity [15]: inactive | Activity [16]: inactive | Activity [17]: inactive | Activity [18]: 13% | Activity [19]: inactive

N=C(CCl)NCCCNc1c2c(c(NCCNC(=N)CCl)c3sccc13)C(=O)c1ccccc1C2=O
IC50 [1]: 3 µM | IC50 [2]: 12.6 µM | Drug uptake [3]: Active | Drug uptake [11]: Not Active | Drug uptake [12]: Active | fold change (FC) [4]: 2 | Drug uptake [20]: Not Active | Drug uptake [5]: Active | Drug uptake [6]: Active | Kd [7]: 0.178 µM | Kd [8]: 0.168 µM | ΔTm [9]: 9 °C | ΔTm [10]: 7 °C | Tm [21]: 75.8 °C | Activity [22]: 45% | Activity [23]: 24% | Activity [24]: 40% | Activity [15]: Active | Activity [16]: 80% | fold change (FC) [17]: 15 | Activity [18]: 81% | Activity [25]: inactive | Activity [26]: 66% | Activity [27]: 28.9% | Activity [28]: 83% | Activity [29]: < 10% | Tm [30]: 75.8 °C

N=C(CCl)NCCCCNc1c2c(c(NCCCCNC(=N)CCl)c3sccc13)C(=O)c1ccccc1C2=O
IC50 [1]: 11.5 µM | IC50 [2]: > 30 µM | Drug uptake [3]: Active | fold change (FC) [4]: 2 | Drug uptake [5]: Active | Drug uptake [6]: Active | Kd [7]: 0.231 µM | Kd [8]: 0.215 µM | ΔTm [9]: 9 °C | ΔTm [10]: 7 °C

N=C(N)NCCCCNc1c2c(c(NCCCCNC(=N)N)c3sccc13)C(=O)c1ccccc1C2=O
IC50 [2]: > 30 µM | Drug uptake [3]: Active | Activity [13]: Active | inhibition [14]: inactive | Activity [15]: inactive | Activity [16]: inactive | Activity [18]: 13% | Activity [19]: inactive

N=C(CCl)NCCNc1c2c(c(NCCNC(=N)CCl)c3sccc13)C(=O)c1ccccc1C2=O
IC50 [1]: 2.7 µM | IC50 [2]: 6.4 µM | Drug uptake [3]: Active | Drug uptake [11]: Not Active | Drug uptake [12]: Active | fold change (FC) [4]: 2 | Drug uptake [20]: Not Active | Drug uptake [5]: Active | Drug uptake [6]: Active | Kd [7]: 0.611 µM | Kd [8]: 0.317 µM | ΔTm [9]: 9 °C | ΔTm [10]: 7 °C | Tm [21]: 75.6 °C | Activity [31]: < 4% | Activity [22]: 35% | Activity [23]: 34% | Activity [32]: 40% | Activity [33]: inactive | Activity [34]: inactive | Activity [15]: Active | Activity [16]: 80% | fold change (FC) [17]: 15 | Activity [18]: 88% | Activity [25]: inactive | Activity [26]: 72.2% | Activity [27]: 12.2% | Activity [28]: 44.7% | Activity [29]: < 10% | TGI [35]: Active | MSD [36]: 54 days | Activity [37]: 70% | Tm [30]: 75.6 °C | Tm [38]: 78.5 °C
